Our source for the IC50 values is patent US10174016B2 (BAYER AKTIENGESELLSCHAFT, priority 2014, dated 2019).

In assay [1] the target is human P2X3 receptor (Homo sapiens (Human), UniProt P56373). Nature of the assay: Intracellular calcium measurement (FLIPR, Fluo-4) of antagonist activity at human P2X3 receptors. The class given is cell-based. To be noted: read-out: hP2X3 IC50. In short, it runs like this:
(§1)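 Cells expressing human P2X3 or P2X2/3, loaded with Fluo-4, preincubated 30 min at 37° C. with compound (1% DMSO final), then challenged with α,β-Me-ATP at its EC80. Peak FLIPR fluorescence over 90 sec gave % response; IC50, maximal inhibition and Hill slope from triplicates.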
On the technique in general: Calcium flux is commonly read through the fluorescence of an indicator in the cells.

Assay [2] addresses human P2X2/3 receptor (Homo sapiens (Human), UniProt P56373+Q9UBL9). As to the kind of experiment: Intracellular calcium measurement (FLIPR, Fluo-4) of antagonist activity at human P2X2/3 receptors. As to conditions: for pIC50: human P2X2/3, FLIPR calcium assay, agonist α,β-Me-ATP, read-out: hP2X2/3 IC50; for IC50: hP2X2/3 IC50 (nM). It counts as cell-based. In short, it runs like this: as §1

Where [3] appears, read: human P2X3, FLIPR calcium assay, agonist α,β-Me-ATP.

pIC50: −log10 of the molar value. Read-outs that look alike come from different tables or passages of the source. Some results are limits rather than exact numbers.

Sequence of human P2X2/3 receptor (P56373 whole entry): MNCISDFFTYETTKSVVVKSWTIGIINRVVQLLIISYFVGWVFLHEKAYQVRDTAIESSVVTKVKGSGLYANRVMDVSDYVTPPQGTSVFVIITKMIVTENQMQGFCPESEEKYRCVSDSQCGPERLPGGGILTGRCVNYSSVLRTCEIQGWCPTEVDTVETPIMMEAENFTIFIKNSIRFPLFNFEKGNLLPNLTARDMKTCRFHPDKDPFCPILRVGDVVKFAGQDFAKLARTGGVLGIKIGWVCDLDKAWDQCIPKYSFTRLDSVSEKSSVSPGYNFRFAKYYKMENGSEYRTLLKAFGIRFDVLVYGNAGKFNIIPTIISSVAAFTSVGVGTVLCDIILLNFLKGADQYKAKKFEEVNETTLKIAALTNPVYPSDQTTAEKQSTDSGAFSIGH
Sequence of human P2X2/3 receptor (Q9UBL9 whole entry): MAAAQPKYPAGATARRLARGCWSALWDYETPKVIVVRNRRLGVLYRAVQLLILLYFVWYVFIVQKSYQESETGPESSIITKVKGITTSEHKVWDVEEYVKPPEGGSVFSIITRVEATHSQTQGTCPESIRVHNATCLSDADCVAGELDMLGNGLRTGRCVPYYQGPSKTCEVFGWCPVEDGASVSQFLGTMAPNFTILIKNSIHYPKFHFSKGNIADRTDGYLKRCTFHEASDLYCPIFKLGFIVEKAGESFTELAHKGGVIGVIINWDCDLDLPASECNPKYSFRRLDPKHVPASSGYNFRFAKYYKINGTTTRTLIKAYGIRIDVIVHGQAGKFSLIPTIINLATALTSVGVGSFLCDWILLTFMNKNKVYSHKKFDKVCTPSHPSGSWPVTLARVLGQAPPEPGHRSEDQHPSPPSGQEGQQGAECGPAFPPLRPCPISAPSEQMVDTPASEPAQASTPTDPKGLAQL
Sequence of human P2X3 receptor (P56373 whole entry): as the sequence (P56373 whole entry) above

Take `Cc1cnc(-c2cc(OC3CCOCC3)cc(C(=O)N[C@@H](C)c3cnc(C(F)(F)F)nc3)c2)s1` [Example 145, 3-(5-Methyl-1,3-thiazol-2-yl)-5-(tetrahydro-2H-pyran-4-yloxy)-N-{(1S)-1-[2-(trifluoromethyl)pyrimidin-5-yl]ethyl}benzamide]: the pIC50 in assay [1] (setting [3]) was 6.57; in assay [2], 5.35.

As to `Cc1ccc([C@@H](C)NC(=O)c2cc(OC3CCN(CC(F)F)CC3)cc(-c3ncc(C)s3)c2)nn1` [Example 305, 3-{[1-(2,2-difluoroethyl)piperidin-4-yl]oxy}-N-[(1R)-1-(6-methylpyridazin-3-yl)ethyl]-5-(5-methyl-1,3-thiazol-2-yl)benzamide], the values for the pIC50 in assay [1] (setting [3]) and in assay [2] were 8.05 and 7.36, respectively.

Consider `Cc1ncc([C@@H](C)NC(=O)c2cc(OC3COC3)cc(-c3ncc(C)s3)c2)cn1` [Example 43, N-[(1R)-1-(2-Methylpyrimidin-5-yl)ethyl]-3-(5-methyl-1,3-thiazol-2-yl)-5-(oxetan-3-yloxy)benzamide], for which the pIC50 in assay [1] (setting [3]) is 7.30; in assay [2], 5.57.

For the molecule `C[C@@H](NC(=O)c1cc(OC[C@H]2CN(C)CCO2)cc(-c2ncc(Cl)s2)c1)c1cnc(C(F)(F)F)nc1` [Example 367, 3-(5-chloro-1,3-thiazol-2-yl)-5-{[(2R)-4-methylmorpholin-2-yl]methoxy}-N-{(1R)-1-[2-(trifluoromethyl)pyrimidin-5-yl]ethyl}benzamide], the pIC50 is 7.89 in assay [1] (setting [3]) and 6.30 in assay [2].

With `Cc1ccc(CNC(=O)c2cc(O[C@@H]3CCOC3)cc(-c3ncc(C)s3)c2)nn1` [Example 17, N-[(6-methylpyridazin-3-yl)methyl]-3-(5-methyl-1,3-thiazol-2-yl)-5-[(3R)-tetrahydrofuran-3-yloxy]benzamide], the pIC50 in assay [1] (setting [3]) was 7.46; in assay [2], 6.00.

As to `CC(C)c1cnc(-c2cc(OC[C@H]3CCCO3)cc(C(=O)N[C@H](C)c3ccc(C(F)(F)F)nn3)c2)s1` [Example 299, 3-[5-(propan-2-yl)-1,3-thiazol-2-yl]-5-[(2R)-tetrahydrofuran-2-ylmethoxy]-N-{(1R)-1-[6-(trifluoromethyl)pyridazin-3-yl]ethyl}benzamide], the pIC50 is 7.43 in assay [1] (setting [3]) and 6.24 in assay [2].

With `Cc1cnc([C@@H](C)NC(=O)c2cc(OC[C@H]3CCCO3)cc(-c3ncc(C)s3)c2)cn1` [Example 64, N-[(1R)-1-(5-methylpyrazin-2-yl)ethyl]-3-(5-methyl-1,3-thiazol-2-yl)-5-[(2R)-tetrahydrofuran-2-ylmethoxy]benzamide], the figures for the pIC50 in assay [1] (setting [3]) and in assay [2] were 7.28 and 6.01, respectively.

As a reminder, the IC50 is the concentration needed to halve the response being measured. `Cc1ncc([C@@H](C)NC(=O)c2cc(O[C@@H]3CCOC3)cc(-c3ncc(C)s3)c2)cn1` [Example 23, N-[(1R)-1-(2-Methylpyrimidin-5-yl)ethyl]-3-(5-methyl-1,3-thiazol-2-yl)-5-[(3R)-tetrahydrofuran-3-yloxy]benzamide]: the pIC50 in assay [1] is 7.52. For the same molecule, the half-maximal inhibitory concentration (IC50) in assay [2] was determined as 1110 nM.

With `C[C@@H](NC(=O)c1cc(OC[C@H]2CCOC2)cc(-c2ncc(C3CCC3)s2)c1)c1cnc(C(F)(F)F)nc1` [Example 123, 3-(5-Cyclobutyl-1,3-thiazol-2-yl)-5-[(3S)-tetrahydrofuran-3-ylmethoxy]-N-{(1R)-1-[2-(trifluoromethyl)pyrimidin-5-yl]ethyl}benzamide], the pIC50 was 7.34 in assay [1] (setting [3]) and 6.79 in assay [2].

`Cc1cnc(-c2cc(OC[C@@H]3CCOC3)cc(C(=O)NC(C)c3ncc(Cl)cc3F)c2)s1` (stereo partly drawn) [Example 78, N-[1-(5-Chloro-3-fluoropyridin-2-yl)ethyl]-3-(5-methyl-1,3-thiazol-2-yl)-5-[(3R)-tetrahydrofuran-3-ylmethoxy]benzamide]: the pIC50 was 8.22 in assay [1] (setting [3]) and 7.08 in assay [2].

On to `Cc1cnc(-c2cc(OC3CCN(C)CC3)cc(C(=O)N[C@H](C)c3cnc(C(F)(F)F)nc3)c2)s1` [Example 139, 3-[(1-Methylpiperidin-4-yl)oxy]-5-(5-methyl-1,3-thiazol-2-yl)-N-{(1R)-1-[2-(trifluoromethyl)pyrimidin-5-yl]ethyl}benzamide], for which the pIC50 is 8.10 in assay [1] (setting [3]) and 6.02 in assay [2].

Turning to `Cc1cnc(-c2cc(OC3CCN(CC(F)F)CC3)cc(C(=O)N[C@@H](C)c3cnc(C(F)(F)F)nc3)c2)s1` [Example 308, 3-{[1-(2,2-difluoroethyl)piperidin-4-yl]oxy}-5-(5-methyl-1,3-thiazol-2-yl)-N-{(1S)-1-[2-(trifluoromethyl)pyrimidin-5-yl]ethyl}benzamide], the pIC50 in assay [1] (setting [3]) is 6.82; in assay [2] it was 5.59.

Consider `Cc1cnc(-c2cc(OCC3(F)CN(C)C3)cc(C(=O)N[C@H](C)c3ccc(C(F)(F)F)nc3)c2)s1` [Example 386, 3-[(3-fluoro-1-methylazetidin-3-yl)methoxy]-5-(5-methyl-1,3-thiazol-2-yl)-N-{(1R)-1-[6-(trifluoromethyl)pyridin-3-yl]ethyl}benzamide], for which the values for the pIC50 in assay [1] (setting [3]) and in assay [2] were 7.62 and 6.09, respectively.

On to `Cc1ccc(Oc2cc(C(=O)N[C@H](C)c3cnc(C(F)(F)F)nc3)cc(-c3ncc(C)s3)c2)cn1` [Example 108, 3-[(6-Methylpyridin-3-yl)oxy]-5-(5-methyl-1,3-thiazol-2-yl)-N-{(1R)-1-[2-(trifluoromethyl)pyrimidin-5-yl]ethyl}benzamide], for which the pIC50 in assay [1] (setting [3]) is 7.96; in assay [2], 7.08.

On to `Cc1cnc(-c2cc(OC3CCOCC3)cc(C(=O)N[C@H](C)c3nnc(C)s3)c2)s1` [Example 92, N-[(1R)-1-(5-Methyl-1,3,4-thiadiazol-2-yl)ethyl]-3-(5-methyl-1,3-thiazol-2-yl)-5-(tetrahydro-2H-pyran-4-yloxy)benzamide], for which the pIC50 is 7.62 in assay [1] (setting [3]) and 6.50 in assay [2].

Take `Cc1cc(Oc2cc(C(=O)N[C@H](C)c3cnc(C)nc3)cc(-c3ncc(C)s3)c2)ccn1` [Example 106, 3-[(2-methylpyridin-4-yl)oxy]-N-[(1R)-1-(2-methylpyrimidin-5-yl)ethyl]-5-(5-methyl-1,3-thiazol-2-yl)benzamide]: the pIC50 in assay [1] (setting [3]) is 7.80; in assay [2], 7.39.

Regarding `Cc1ccc(CNC(=O)c2cc(OC[C@@H]3CCOC3)cc(-c3ncc(C)s3)c2)nn1` [Example 75, N-[(6-Methylpyridazin-3-yl)methyl]-3-(5-methyl-1,3-thiazol-2-yl)-5-[(3R)-tetrahydrofuran-3-ylmethoxy]benzamide], the pIC50 in assay [1] (setting [3]) is 7.42; in assay [2], 5.18.

`Cc1cnc(-c2cc(OC[C@@H]3CN(C)CCO3)cc(C(=O)N[C@@H](C)c3cnc(C(F)(F)F)nc3)c2)s1` [Example 417, 3-{[(2S)-4-methylmorpholin-2-yl]methoxy}-5-(5-methyl-1,3-thiazol-2-yl)-N-{(1S)-1-[2-(trifluoromethyl)pyrimidin-5-yl]ethyl}benzamide]: the results for the pIC50 in assay [1] and in assay [2] were 6.36 and no more than 5.00, respectively.

For `Cc1cnc(-c2cc(OC[C@@H]3COCC(=O)N3C)cc(C(=O)N[C@H](C)c3cnc(C(F)(F)F)nc3)c2)s1` [Example 402, 3-{[(3S)-4-methyl-5-oxomorpholin-3-yl]methoxy}-5-(5-methyl-1,3-thiazol-2-yl)-N-{(1R)-1-[2-(trifluoromethyl)pyrimidin-5-yl]ethyl}benzamide], the pIC50 in assay [1] (setting [3]) was 7.68; in assay [2], 5.90.

`CCc1cnc(-c2cc(OC[C@@H]3CCCO3)cc(C(=O)N[C@H](C)c3ccc(C(F)(F)F)nn3)c2)s1` [Example 302, 3-(5-ethyl-1,3-thiazol-2-yl)-5-[(2S)-tetrahydrofuran-2-ylmethoxy]-N-{(1R)-1-[6-(trifluoromethyl)pyridazin-3-yl]ethyl}benzamide]: the results for the pIC50 in assay [1] (setting [3]) and in assay [2] were 8.22 and 6.84, respectively.

Turning to `Cc1ncc([C@@H](C)NC(=O)c2cc(O[C@H]3CCOC3)cc(-c3ncc(C)s3)c2)cn1` [Example 130, N-[(1R)-1-(2-Methylpyrimidin-5-yl)ethyl]-3-(5-methyl-1,3-thiazol-2-yl)-5-[(3S)-tetrahydrofuran-3-yloxy]benzamide], the pIC50 in assay [1] was 7.13. Moreover, the concentration for half-maximal inhibition (IC50) in assay [2] was determined as 1350 nM.

On to `Cc1cnc(-c2cc(OC3COC3)cc(C(=O)NCc3ccc(C(F)(F)F)nn3)c2)s1` [Example 52, 3-(5-methyl-1,3-thiazol-2-yl)-5-(oxetan-3-yloxy)-N-{[6-(trifluoromethyl)pyridazin-3-yl]methyl}benzamide], for which the pIC50 in assay [1] (setting [3]) is 6.71; in assay [2] it was 6.25.

As for `Cc1cnc(-c2cc(OC[C@@H]3CN(C)C(=O)O3)cc(C(=O)N[C@H](C)c3cnc(C(F)(F)F)nc3)c2)s1` [Example 397, 3-{[(5S)-3-methyl-2-oxo-1,3-oxazolidin-5-yl]methoxy}-5-(5-methyl-1,3-thiazol-2-yl)-N-{(1R)-1-[2-(trifluoromethyl)pyrimidin-5-yl]ethyl}benzamide], the pIC50 in assay [1] (setting [3]) was 7.82; in assay [2], 5.87.

Regarding `Cc1cnc(-c2cc(O[C@H]3CCOC3)cc(C(=O)NC(C)c3ncc(F)cc3Cl)c2)s1` (stereo partly drawn) [Example 132, N-[1-(3-Chloro-5-fluoropyridin-2-yl)ethyl]-3-(5-methyl-1,3-thiazol-2-yl)-5-[(3S)-tetrahydrofuran-3-yloxy]benzamide], the results for the pIC50 in assay [1] (setting [3]) and in assay [2] were 7.12 and 5.69, respectively.

In the case of `COC(C)(C)COc1cc(C(=O)N[C@H](C)c2cnc(C(F)(F)F)nc2)cc(-c2ncc(Cl)s2)c1` [Example 116, 3-(5-Chloro-1,3-thiazol-2-yl)-5-(2-methoxy-2-methylpropoxy)-N-{(1R)-1-[2-(trifluoromethyl)pyrimidin-5-yl]ethyl}benzamide], the pIC50 is 6.68 in assay [1] (setting [3]) and 5.19 in assay [2].
